Experimental findings from US5643872A, “Cyclic anti-aggregatory peptides” (SmithKline Beecham Corporation, priority 1994, dated 1997) are described below.

For series [1] the following is noted: amide bond, DMF.
In series [2] the target is dog platelets (Canis lupus familiaris, UniProt A0A8I3N5G5+A0A8I3PMU9). Conditions: read-out: IC50 for the aggregation of dog platelets stimulated by ADP; agonist ADP; peptides added 3 min prior to the agonist; light transmittance 5 min after agonist. As for the experimental part:
Inhibition of Platelet Aggregation
Blood was collected (citrated to prevent coagulation) from, naive, adult mongrel dogs. Platelet rich plasma, PRP, was prepared by centrifugation at 150×g for 10 min at room temperature. Washed platelets were prepared by centrifuging PRP at 800×g for 10 min. The cell pellet thus obtained was washed twice in Tyrode's buffer (pH 6.5) without Ca^++ and resuspended in Tyrode's buffer (pH 7.4) containing 1.8 mM Ca^++ at […]. Peptides were added 3 min prior to the agonist in all assays of platelet aggregation. Final agonist concentrations were 0.1 unit/ml thrombin and […] (Sigma). Aggregation was monitored in a Chrono-Log Lumi-Aggregometer. Light transmittance 5 min after addition of the agonist was used to calculate percent aggregation according to the formula % aggregation=[(90-CR)[…](90-10)]×100, where CR is the chart reading, 90 is the baseline, and 10 is the PRP blank reading. IC50 's were determined by plotting [% inhibition of aggregation] vs. [concentration of peptide]. Peptides were assayed at […] and diluted sequentially by a factor of 2 to establish a suitable dose response curve.

[3] abbreviates: the molecule shown is the open-chain precursor, 20-membered ring, BOP/DIEA, resin, with chain assembly.

Where two headings read alike, the source gives them in different places. Square brackets hold non-standard residues; d marks the D form. Peptide text beside a SMILES is read from it.

dog platelets, sequence (A0A8I3N5G5 1-1047): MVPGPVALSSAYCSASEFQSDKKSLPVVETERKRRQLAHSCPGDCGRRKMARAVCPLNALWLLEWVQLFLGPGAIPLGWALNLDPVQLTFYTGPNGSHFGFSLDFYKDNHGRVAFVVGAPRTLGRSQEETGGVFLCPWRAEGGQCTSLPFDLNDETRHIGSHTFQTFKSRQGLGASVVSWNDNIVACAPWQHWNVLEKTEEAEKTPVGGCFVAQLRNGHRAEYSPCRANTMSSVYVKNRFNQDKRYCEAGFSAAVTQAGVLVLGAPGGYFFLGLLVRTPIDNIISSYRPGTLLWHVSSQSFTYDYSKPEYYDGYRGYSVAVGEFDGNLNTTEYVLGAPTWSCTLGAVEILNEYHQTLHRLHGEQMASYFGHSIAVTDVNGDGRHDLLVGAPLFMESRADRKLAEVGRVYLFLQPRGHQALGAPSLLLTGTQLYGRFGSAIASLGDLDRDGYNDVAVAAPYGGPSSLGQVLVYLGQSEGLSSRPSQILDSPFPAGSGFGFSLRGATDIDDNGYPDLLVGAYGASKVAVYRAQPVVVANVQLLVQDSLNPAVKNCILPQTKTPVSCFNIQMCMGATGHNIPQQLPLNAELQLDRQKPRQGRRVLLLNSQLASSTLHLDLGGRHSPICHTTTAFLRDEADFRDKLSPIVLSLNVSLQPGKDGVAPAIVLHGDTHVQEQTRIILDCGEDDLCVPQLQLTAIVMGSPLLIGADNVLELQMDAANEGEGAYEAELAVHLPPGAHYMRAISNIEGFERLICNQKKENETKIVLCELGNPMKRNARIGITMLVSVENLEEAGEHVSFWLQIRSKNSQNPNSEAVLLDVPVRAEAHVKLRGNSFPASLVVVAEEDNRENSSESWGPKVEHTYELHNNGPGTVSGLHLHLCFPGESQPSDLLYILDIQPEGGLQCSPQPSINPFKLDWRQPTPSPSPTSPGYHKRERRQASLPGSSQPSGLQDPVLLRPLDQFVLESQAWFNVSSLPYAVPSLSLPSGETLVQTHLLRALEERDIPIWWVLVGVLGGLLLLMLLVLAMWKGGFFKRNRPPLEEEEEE
dog platelets, sequence (A0A8I3PMU9 1-919): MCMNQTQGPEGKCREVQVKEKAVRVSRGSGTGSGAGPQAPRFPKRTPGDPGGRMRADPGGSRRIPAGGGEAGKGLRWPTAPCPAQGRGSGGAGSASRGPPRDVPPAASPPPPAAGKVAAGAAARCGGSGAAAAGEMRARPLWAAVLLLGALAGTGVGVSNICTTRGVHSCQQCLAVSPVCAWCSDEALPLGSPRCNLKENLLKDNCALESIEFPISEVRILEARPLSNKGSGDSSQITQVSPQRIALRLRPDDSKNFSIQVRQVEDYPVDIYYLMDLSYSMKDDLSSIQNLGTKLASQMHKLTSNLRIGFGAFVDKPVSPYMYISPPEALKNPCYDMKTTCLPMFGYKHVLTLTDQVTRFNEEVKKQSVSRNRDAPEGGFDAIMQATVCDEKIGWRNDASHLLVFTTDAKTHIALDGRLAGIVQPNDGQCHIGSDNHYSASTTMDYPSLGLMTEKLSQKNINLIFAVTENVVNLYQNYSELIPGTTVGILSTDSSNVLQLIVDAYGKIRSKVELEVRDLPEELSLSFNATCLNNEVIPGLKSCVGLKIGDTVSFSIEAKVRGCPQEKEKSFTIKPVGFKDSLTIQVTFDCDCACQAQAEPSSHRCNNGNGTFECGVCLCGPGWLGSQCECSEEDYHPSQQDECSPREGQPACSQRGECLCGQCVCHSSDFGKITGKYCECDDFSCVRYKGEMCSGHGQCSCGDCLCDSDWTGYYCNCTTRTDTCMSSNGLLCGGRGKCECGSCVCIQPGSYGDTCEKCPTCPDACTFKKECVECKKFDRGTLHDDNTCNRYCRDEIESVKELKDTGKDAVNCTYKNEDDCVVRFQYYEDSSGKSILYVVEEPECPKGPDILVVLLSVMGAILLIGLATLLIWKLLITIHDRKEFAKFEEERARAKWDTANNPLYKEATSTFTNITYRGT

Molecule `COc1cc(C)c(S(=O)(=O)NC(=N)NCCC[C@@H]2NC(=O)[C@@H]3CCCN3C(=O)[C@@H](Cc3ccccc3)NC(=O)[C@H](CC(=O)OC(C)(C)C)NC(=O)CNC(=O)[C@H](CCCNC(=N)NS(=O)(=O)c3c(C)cc(OC)c(C)c3C)NC(=O)[C@@H]3CCCN3C(=O)[C@@H](Cc3ccccc3)NC(=O)[C@H](CC(=O)OC(C)(C)C)NC(=O)CNC2=O)c(C)c1C` yielded a ring closure, crude yield in series [1] (from H-Asp(OtBu)-dPhe-Pro-Arg(Mtr)-Gly-Asp(OtBu)-dPhe-Pro-Arg(Mtr)-Gly-OH, 30-membered ring, PPA/NMM, 0.4 mM) of 100%.

For the molecule `COc1cc(C)c(S(=O)(=O)NC(=N)NCCC[C@@H]2NC(=O)[C@H](Cc3ccccc3)NC(=O)[C@H](CC(=O)OC(C)(C)C)NC(=O)CNC(=O)[C@H](CCCNC(=N)NS(=O)(=O)c3c(C)cc(OC)c(C)c3C)NC(=O)[C@H](Cc3ccccc3)NC(=O)[C@H](CC(=O)OC(C)(C)C)NC(=O)CNC2=O)c(C)c1C`, in series [1] (from H-Asp(OtBu)-Phe-Arg(Mtr)-Gly-Asp(OtBu)-Phe-Arg(Mtr)-Gly-OH, 24-membered ring, PPA/NMM, 0.4 mM), the ring closure, crude yield was 100%.

Consider `COc1cc(C)c(S(=O)(=O)NC(=N)NCCC[C@@H]2NC(=O)[C@H](Cc3ccccc3)NC(=O)[C@H](CC(=O)OC(C)(C)C)NC(=O)CNC(=O)[C@H](CCCNC(=N)NS(=O)(=O)c3ccc(C)cc3)N(C)C(=O)[C@H](Cc3ccccc3)NC(=O)[C@H](CC(=O)OC(C)(C)C)NC(=O)CNC2=O)c(C)c1C`, for which the ring closure, crude yield in series [1] (from H-Asp(OtBu)-Phe-MeArg(Tos)-Gly-Asp(OtBu)-Phe-Arg(Mtr)-Gly-OH, 24-membered ring, PPA/NMM, 0.4 mM) amounted to 95%. What is called IC50 is the point on the concentration scale where inhibition reaches its midpoint. Turning to `N=C(N)NCCC[C@@H]1NC(=O)[C@@H]2CCCN2C(=O)[C@@H](Cc2ccccc2)NC(=O)[C@H](CC(=O)O)NC(=O)CNC(=O)[C@H](CCCNC(=N)N)NC(=O)[C@@H]2CCCN2C(=O)[C@@H](Cc2ccccc2)NC(=O)[C@H](CC(=O)O)NC(=O)CNC1=O` [Example 22, cyclo-(1,10)-Pro-Arg-Gly-Asp-D-Phe-Pro-Arg-Gly-Asp-D-Phe] (cyclo(RGD[dF]PRGD[dF]P)), the IC50 in series [2] was more than 200 µM. The same measure, in the same setting: next, `N=C(N)NCCC[C@@H]1NC(=O)CNC(=O)[C@@H]2CCCN2C(=O)[C@H]2CCCN2C(=O)[C@H](CC(=O)O)NC(=O)CNC1=O` [Example 24, cyclo-(1,6)-Pro-Gly-Arg-Gly-Asp-D-Pro] (cyclo(RGD[dP]PG)): more than 200 µM; `N=C(N)NCCC[C@@H]1NC(=O)CNC(=O)[C@@H]2CCCN2C(=O)[C@H](CO)NC(=O)[C@H](CC(=O)O)NC(=O)CNC1=O` [Example 25, cyclo-(1,6)-Gly-Arg-Gly-Asp-Ser-Pro]: more than 200 µM. Take `C[C@H]1NC(=O)[C@H](CO)NC(=O)[C@H](CC(=O)O)NC(=O)CNC(=O)[C@H](CCCNC(=N)N)NC1=O` [Example 28, cyclo-(1,5)-D-Ala-Arg-Gly-Asp-Ser] (cyclo(RGDS[dA])): the IC50 in series [2] is more than 200 µM. As for `COc1cc(C)c(S(=O)(=O)NC(=N)NCCC[C@@H]2NC(=O)[C@@H]3CCCN3C(=O)[C@@H](Cc3ccccc3)NC(=O)CNC(=O)[C@H](CC(=O)OC(C)(C)C)NC(=O)CNC2=O)c(C)c1C` [cyclo(1,6)-Asp(O-t-Bu)-Gly-D-Phe-Arg(Tos)-Gly], the ring closure, crude yield in series [1] (from H-Asp(OtBu)-Gly-dPhe-Pro-Arg(Mtr)-Gly-OH, 18-membered ring, PPA/NMM, 0.5 mM) turned out to be 84%. For the molecule `COc1cc(C)c(S(=O)(=O)NC(=N)NCCC[C@@H]2NC(=O)[C@H](C)NC(=O)[C@@H](COCc3ccccc3)NC(=O)[C@H](CC(=O)OC(C)(C)C)NC(=O)CNC2=O)c(C)c1C` [cyclo-(1,5)-Ala-Arg(Mtr)-Gly-Asp(O-t-Bu)-D-Ser(Bzl)], in series [1] (from H-Asp(OtBu)-dSer(Bzl)-Ala-Arg(Mtr)-Gly-OH, 15-membered ring, PPA/NMM, 0.4 mM), the ring closure, crude yield was found to be 67%. Turning to `Cc1ccc(S(=O)(=O)NC(=N)NCCC[C@@H]2NC(=O)[C@@H](C)NC(=O)[C@H](COCc3ccccc3)NC(=O)[C@H](CC(=O)OCc3ccccc3)NC(=O)CNC2=O)cc1` [cyclo-(1,5)-D-Ala-Arg(Tos)-Gly-Asp(Bzl)-Ser(Bzl)], in series [1] (from H-Asp(Bzl)-Ser(Bzl)-dAla-Arg(Tos)-Gly-OH, 15-membered ring, PPA/NMM, 0.4 mM), the ring closure, crude yield is 67%. For the molecule `COc1cc(C)c(S(=O)(=O)NC(=N)NCCC[C@@H]2NC(=O)CNC(=O)[C@@H]3CCCN3C(=O)[C@H](COCc3ccccc3)NC(=O)[C@H](CC(=O)OC(C)(C)C)NC(=O)CNC2=O)c(C)c1C` [cyclo-(1,6)-Gly-Arg-Gly-Asp-Ser-Pro], in series [1] (from H-Asp(OtBu)-Ser(Bzl)-Pro-Gly-Arg(Mtr)-Gly-OH, 18-membered ring, PPA/NMM, 0.4 mM), the ring closure, crude yield turned out to be 88%.

In series [1] (from H-Asp(OtBu)-dPro-Gly-Pro-Arg(Mtr)-Gly-OH, 18-membered ring, PPA/NMM, 0.4 mM), `COc1cc(C)c(S(=O)(=O)NC(=N)NCCC[C@@H]2NC(=O)[C@@H]3CCCN3C(=O)CNC(=O)[C@H]3CCCN3C(=O)[C@H](CC(=O)OC(C)(C)C)NC(=O)CNC2=O)c(C)c1C` [cyclo-(1,6)-Gly-Pro-Arg-Gly-Asp-D-Pro] gave a ring closure, crude yield of 42%. Molecule `Cc1ccc(S(=O)(=O)NC(=N)NCCC[C@@H]2NC(=O)[C@@H]3CCCN3C(=O)[C@H]3CCCN3C(=O)CNC(=O)[C@H](CC(=O)OC(C)(C)C)NC(=O)CNC2=O)cc1` [cyclo-(1,6)-Pro-Arg(Tos)-Gly-Asp(O-t-Bu)-Gly-D-Pro] gave a ring closure, crude yield in series [1] (from H-Asp(OtBu)-Gly-dPro-Pro-Arg(Tos)-Gly-OH, 18-membered ring, PPA/NMM, 0.57 mM) of 63%.

Turning to `COc1cc(C)c(S(=O)(=O)NC(=N)NCCC[C@@H]2NC(=O)CNC(=O)[C@@H]3CCCN3C(=O)[C@H]3CCCN3C(=O)[C@H](CC(=O)OC(C)(C)C)NC(=O)CNC2=O)c(C)c1C` [cyclo-(1,6)-Pro-Gly-Arg(Mtr)-Gly-Asp(O-t-Bu)-D-Pro], the ring closure, crude yield in series [1] (from H-Asp(OtBu)-dPro-Pro-Gly-Arg(Mtr)-Gly-OH, 18-membered ring, PPA/NMM, 0.37 mM) was determined as 31%.

In turn, “H-Gly-Arg(Tos)-Gly-Asp(Bzl)-Ser(Bzl)-Glu-BHA-resin” yielded a ring closure, crude yield in series [1] (setting [3]) of 94%. Still for that read-out and setting: as for “H-Gly-MeArg(Tos)-Gly-Asp(Bzl)-Ser(Bzl)-Glu-BHA-resin”, the figure is 100%.
